The values below come from patent US20210353579A1, “HIGH PENETRATION COMPOSITIONS AND USES THEREOF” (Techfields Pharma Co., Ltd., priority 2006, published 2021).

Converted amounts (≈) assume the structure as drawn.

The nature of series [1]: Solubility in water / aqueous solubility of HPPs and parent drugs. To be noted: for Solubility in water: product as prepared in Example 1; for solubility: water.
In the next series the test system is human skin tissue. Particulars: pH 7.4; for In vitro penetration rate (apparent flux), parent compounds: human, 20 %.
The nature of series [2]: Plasma levels after transdermal administration to hairless mice. The class given is in vivo. Particulars: for t, time to peak plasma level after parent compound: parent compound administered (time when taken orally); for Peak plasma concentration after parent compound: parent compound administered, hairless mice; for Peak plasma concentration of parent compound after prodrug compound / t, time to peak plasma level of parent compound after prodrug compound: mouse, in vivo. Here is the method: Tested compounds (20% solution or suspension in 1 mL isopropanol) are administered transdermally to the skin of intact hairless mice. The plasma levels of the parent compounds are determined by HPLC.

Another series has as its system rats. As to the kind of experiment: Antipyretic activity, E. coli suspension as pyrogen. Format: in vivo. To be noted: 100 mg/kg transdermally; in °C (unit assumed). Here is the method: Rats are administered with sterilized E. coli suspension as a pyrogen. Each group of rats are administered with a prodrug compounds or parent compounds at a dosage specified below. The prodrug compounds are administered either orally or transdermally. The parent compounds are administered orally.

Another series relates to mice. As to the kind of experiment: Analgesic activity, acetic acid writhing. Format: in vivo. Particulars: 100 mg/kg transdermally, 30 min before acetic acid. Here is the method: The prodrug compounds are administered either transdermally or orally. The parent compounds are administered orally. The number of writhing that occurred when mice are administered the acetic acid solution are counted, and the rate of inhibition based on the control group which was not pretreated with any test compounds is calculated. […] The A group is the control group.

For the compound `CC(=O)O.CCN(CC)CCNC(=O)CCc1nc(-c2ccccc2)c(-c2ccccc2)o1` [N-diethylaminoethyl 4,5-Diphenyl-2-oxazole propionamide.AcOH], the Solubility in water in series [1] stood at 400000 µg/mL.
With `CC(C(=O)O)c1ccc(C(=O)c2ccccc2)s1` (stereo not shown) [Tiaprofenic acid, tiaprofenic acid, reference compound], in the series on human skin tissue, the “In vitro penetration rate (apparent flux), parent compounds” value is reported as 30 μg/cm^2/h. Also, in series [2], the “t, time to peak plasma level after parent compound” value (“t, time … after parent compound” for short) fell in the range of 2 to 4 h and the “Peak plasma concentration after parent compound” value is recorded as 10 mg/L. Also, in series [1], the solubility (in general, the dissolved amount per volume that the medium holds) was 100 µg/mL (≈ 0.384 mM).
On to `CC(C(=O)O)c1ccc2c(c1)CC(=O)c1ccccc1S2` (stereo not shown) [Zaltoprofen, zaltoprofen, reference compound], for which the “In vitro penetration rate (apparent flux), parent compounds” value with human skin tissue is on record as 30 μg/cm^2/h. In series [2], the “t, time … after parent compound” value was in the range of 2 to 4 h and the “Peak plasma concentration after parent compound” value came out at 10 mg/L. Besides, in series [1], the solubility stood at 100 µg/mL (≈ 0.335 mM).
As to `CC(C)Cc1ccc(CC(=O)O)cc1` [Ibufenac], the solubility in series [1] amounted to 100 µg/mL (≈ 0.52 mM).
Turning to `CC(=O)O.CCN(CC)CCOC(=O)Cc1ccc(CC(C)C)cc1` [diethylaminoethyl p-isobutylphenylacetate.AcOH], the “Solubility of HPP” value in series [1] (medium not given) was >250000 µg/mL.
With `Cc1c(Nc2ncccc2C(=O)O)cccc1C(F)(F)F` [Flunixin, flunixin, reference compound], in the series on human skin tissue, the “In vitro penetration rate (apparent flux), parent compounds” value is listed as 10 μg/cm^2/h. Besides, in series [2], the “t, time … after parent compound” value is 2 to 4 h and the “Peak plasma concentration after parent compound” value is on record as 0.1 mg/L. In series [1], the solubility is < 100 µg/mL.
Consider `O=C(c1ccccc1)c1ccc2n1CCC2C(=O)O` (stereo not shown) [Ketorolac, ketorolac, reference compound], for which the “In vitro penetration rate (apparent flux), parent compounds” value with human skin tissue stood at 30 μg/cm^2/h. In series [2], the “t, time … after parent compound” value lay in the range of 2 to 4 h and the “Peak plasma concentration after parent compound” value is 10 mg/L. In series [1], the solubility amounted to 100 µg/mL (≈ 0.392 mM).
Regarding `O=C(O)CCc1nc(-c2ccccc2)c(-c2ccccc2)o1` [Oxaprozin, oxaprozin, reference compound], the “In vitro penetration rate (apparent flux), parent compounds” value in the series on human skin tissue came out at 30 μg/cm^2/h. Further, in series [2], the “t, time … after parent compound” value was in the range of 2 to 4 h and the “Peak plasma concentration after parent compound” value is 10 mg/L. Moreover, the solubility in series [1] worked out at 100 µg/mL (≈ 0.341 mM).
On to `CC(C(=O)O)c1ccc(-c2ccccc2)c(F)c1` (stereo not shown) [Flurbiprofen, flurbiprofen, reference compound], for which the “In vitro penetration rate (apparent flux), parent compounds” value in the series with human skin tissue was found to be 30 μg/cm^2/h. In series [2], the “t, time … after parent compound” value lay within 2 to 4 h and the “Peak plasma concentration after parent compound” value is reported as 10 mg/L. Also, the solubility in series [1] turned out to be 200 µg/mL (≈ 0.819 mM).
With `CC(=O)O.CCN(CC)CCOC(=O)CCC(=O)c1ccc(-c2ccccc2)cc1` [diethylaminoethyl 3-(4-biphenylylcarbonyl)propionate.AcOH], in the series on rats, the “body temperature, t = 0 min” value stood at 37.23 ± 0.06; the “body temperature, t = 90 min” value was 36.81 ± 0.05; the “body temperature, t = 180 min” value was 36.65 ± 0.08; the “body temperature, t = 270 min” value is recorded as 36.61 ± 0.07. In addition, the “In vitro penetration rate (apparent flux), prodrug compounds” value in the series on human skin tissue is on record as 3600 μg/cm^2/h. In series [2], the “Peak plasma concentration of parent compound after prodrug compound” value came to 2000 mg/L and the “t, time to peak plasma level of parent compound after prodrug compound” value (from here on “t, time … after prodrug compound”) is listed as 50 min. Besides, in the series with mice, the “% (rate of writhing inhibition)” value came out at 59% and the “No. of Writhing” value is given as 14.2.
On to `CC(C(=O)O)c1ccc(CC2CCCC2=O)cc1` (stereo not shown) [Loxoprofen, loxoprofen, reference compound], for which the “In vitro penetration rate (apparent flux), parent compounds” value in the series with human skin tissue came to 30 μg/cm^2/h. For the same compound, in series [2], the “t, time … after parent compound” value lay within 2 to 4 h and the “Peak plasma concentration after parent compound” value was determined as 10 mg/L. In series [1], the solubility was 100 µg/mL (≈ 0.406 mM).
In the case of `Cc1cnc(NC(=O)C2=C(O)c3ccccc3S(=O)(=O)N2C)s1` [Meloxicam, meloxicam, reference compound], the “In vitro penetration rate (apparent flux), parent compounds” value with human skin tissue is listed as <1 μg/cm^2/h. Besides, in series [2], the “t, time … after parent compound” value fell in the range of 2 to 4 h and the “Peak plasma concentration after parent compound” value is listed as 0.1 mg/L. For the same compound, the solubility in series [1] is < 100 µg/mL.
Take `CC(=O)O.CN(C)CCSC(=O)Cc1ccccc1Nc1c(Cl)cccc1Cl` [S-dimethylaminoethyl 2[(2,6-dichlorophenyl)amino] benzene acetate.AcOH]: the Solubility in water in series [1] stood at 410000 µg/mL.
For `Cc1cc(NC(=O)C2=C(O)c3ccccc3S(=O)(=O)N2C)no1` [Isoxicam, isoxicam, reference compound], the “In vitro penetration rate (apparent flux), parent compounds” value in the series with human skin tissue was <1 μg/cm^2/h. Also, in series [2], the “t, time … after parent compound” value lay within 2 to 4 h and the “Peak plasma concentration after parent compound” value is given as 0.1 mg/L. Further, the solubility in series [1] is < 100 µg/mL.
As to `CC(=O)O.CCN(CC)CCOC(=O)CCc1nc(-c2ccccc2)c(-c2ccccc2)o1` [diethylaminoethyl 4,5-Diphenyl-2-oxazole propionate.AcOH], in the series on rats, the “body temperature, t = 0 min” value stood at 37.24 ± 0.07; the “body temperature, t = 90 min” value came to 36.82 ± 0.06; the “body temperature, t = 180 min” value is recorded as 36.70 ± 0.05; the “body temperature, t = 270 min” value is on record as 36.67 ± 0.08. Also, the “In vitro penetration rate (apparent flux), prodrug compounds” value in the series on human skin tissue turned out to be 4000 μg/cm^2/h. Moreover, in series [2], the “Peak plasma concentration of parent compound after prodrug compound” value is recorded as 2000 mg/L and the “t, time … after prodrug compound” value stood at 50 min. Also, in the series on mice, the “% (rate of writhing inhibition)” value came to 55% and the “No. of Writhing” value was 15.7.
For the compound `CC(=O)O.CCN(CC)CCOC(=O)C(C)c1ccc(N2CC=CC2)c(Cl)c1` (stereo not drawn) [diethylaminoethyl 3-chloro-4-(2,5-dihydro-1H-pyrrol-1-yl)-α-methyl benzeneacetate.AcOH], in the series with rats, the “body temperature, t = 0 min” value was determined as 37.27 ± 0.06; the “body temperature, t = 90 min” value is reported as 36.68 ± 0.05; the “body temperature, t = 180 min” value is 36.62 ± 0.08; the “body temperature, t = 270 min” value is reported as 36.58 ± 0.07. Moreover, the “In vitro penetration rate (apparent flux), prodrug compounds” value with human skin tissue came out at 3500 μg/cm^2/h. In addition, in series [2], the “Peak plasma concentration of parent compound after prodrug compound” value turned out to be 2000 mg/L and the “t, time … after prodrug compound” value stood at 50 min. Moreover, in the series on mice, the “% (rate of writhing inhibition)” value worked out at 60% and the “No. of Writhing” value was 14.0.
Turning to `CC(C(=O)O)c1ccc(C(=O)c2cccs2)cc1` (stereo not shown) [Suprofen, suprofen, reference compound], the “In vitro penetration rate (apparent flux), parent compounds” value in the series on human skin tissue turned out to be 30 μg/cm^2/h. In series [2], the “t, time … after parent compound” value is 2 to 4 h and the “Peak plasma concentration after parent compound” value was determined as 10 mg/L. Moreover, the solubility in series [1] came out at 100 µg/mL (≈ 0.384 mM).
Taken in the same sequence, the figures for `CN1C(C(=O)Nc2ccccn2)=C(O)c2sc(Cl)cc2S1(=O)=O` [Lornoxicam, lornoxicam, reference compound] were <1 μg/cm^2/h, 2 to 4 h, 0.1 mg/L and < 100 µg/mL.
In the case of `CC(C(=O)O)c1ccc(N2CC=CC2)c(Cl)c1` (stereo not shown) [Pirprofen, pirprofen, reference compound], the “In vitro penetration rate (apparent flux), parent compounds” value in the series with human skin tissue was 30 μg/cm^2/h. In addition, in series [2], the “t, time … after parent compound” value is 2 to 4 h and the “Peak plasma concentration after parent compound” value is recorded as 10 mg/L. Further, in series [1], the solubility is 100 µg/mL (≈ 0.397 mM).
In the case of `CC(=O)O.CCN(CC)CCOC(=O)CC(O)c1ccc(-c2ccc(Cl)cc2)o1` (stereo not drawn) [diethylaminoethyl 5-(4-chlorophenyl)-beta-hydroxy-2-furanpropionate.AcOH], in the series on rats, the “body temperature, t = 0 min” value turned out to be 37.29 ± 0.07; the “body temperature, t = 90 min” value is 36.82 ± 0.06; the “body temperature, t = 180 min” value amounted to 36.60 ± 0.05; the “body temperature, t = 270 min” value is reported as 36.67 ± 0.08. The “In vitro penetration rate (apparent flux), prodrug compounds” value in the series on human skin tissue amounted to 4100 μg/cm^2/h. Also, in series [2], the “Peak plasma concentration of parent compound after prodrug compound” value is given as 2000 mg/L and the “t, time … after prodrug compound” value was found to be 50 min. Further, in the series on mice, the “% (rate of writhing inhibition)” value is on record as 55% and the “No. of Writhing” value turned out to be 15.6.
As to `CCN(CC)CCOC(=O)c1ccccc1Nc1cccc(Cl)c1C` [diethylaminoethyl 2-[(3-chloro-2-methylphenyl)amino]benzoate], the solubility in series [1] is > 400000 µg/mL.
The same measure, in the same setting: next, `Cc1c(Cl)cccc1Nc1ccccc1C(=O)O` [tolfenamic acid]: < 100 µg/mL.
As to `CC(=O)O.CCN(CC)CCOC(=O)C(C)c1ccc(C(=O)c2ccccc2)s1` (stereo not drawn) [diethylaminoethyl 5-benzoyl-α-methyl-2-thiopheneacetate.AcOH], in the series with rats, the “body temperature, t = 0 min” value stood at 37.26 ± 0.06; the “body temperature, t = 90 min” value amounted to 36.65 ± 0.06; the “body temperature, t = 180 min” value amounted to 36.58 ± 0.08; the “body temperature, t = 270 min” value was determined as 36.36 ± 0.07. In the series on human skin tissue, the “In vitro penetration rate (apparent flux), prodrug compounds” value was 4200 μg/cm^2/h. In series [2], the “Peak plasma concentration of parent compound after prodrug compound” value stood at 2000 mg/L and the “t, time … after prodrug compound” value was 50 min. Further, in the series with mice, the “% (rate of writhing inhibition)” value amounted to 62% and the “No. of Writhing” value stood at 13.2.
Take `O=C(O)COc1nn(Cc2ccccc2)c2ccccc12` [Bendazac, bendazac, reference compound]: in series [2], the “t, time … after parent compound” value lay within 1 to 2 h and the “Peak plasma concentration after parent compound” value was determined as 0.1 mg/L. Further, the solubility in series [1] was 100 µg/mL (≈ 0.354 mM).
Turning to `CC(=O)O.CN(C)CCNC(=O)Cc1ccccc1Nc1c(Cl)cccc1Cl` [N-dimethylaminoethyl 2[(2,6-dichlorophenyl)amino] benzene acetamide.AcOH], in series [1], the Solubility in water amounted to 450000 µg/mL.
